In PMC4300089, “Structure-Guided Design of Selective Epac1 and Epac2 Agonists” (PLoS Biology, 2015):

What was measured:
PKA-Iα = biological target: T1, PKA-Iα (Homo sapiens, UniProt P10644); experiment: PKA activity assay (coupled spectrophotometric, Kemptide), PKA-Iα; type: biochemical; settings: PKAIα
T1 construct: made in house
Description: The recombinant human PKA catalytic subunit (Cα1) and the four human PKA regulatory subunits (RIα, RIβ, RIIα, RIIβ) were expressed, purified, and characterized as described. […] PKA holoenzymes were formed by mixing the R- and C-subunit at a molar ratio of 1.2:1 and extensive dialysis against 20 mM MOPS (pH 7.0), 150 mM NaCl, 2.5 mM β-mercaptoethanol, supplemented with 1 mM ATP and 10 mM MgCl2 for PKA-I at 4°C overnight. PKA holoenzymes were used at about 20 nM for the activation assay. The apparent activation constants (Kact) were determined by fitting the concentration-dependent activity to a sigmoid dose-response model.

Epac2^fl = biological target: T2, Epac2^fl (Mus musculus, UniProt Q9EQZ6); experiment: Epac activation assay, full length Epac2; type: biochemical; parameters: made in house
T2 sequence (Q9EQZ6 1-993 isoform Q9EQZ6-3): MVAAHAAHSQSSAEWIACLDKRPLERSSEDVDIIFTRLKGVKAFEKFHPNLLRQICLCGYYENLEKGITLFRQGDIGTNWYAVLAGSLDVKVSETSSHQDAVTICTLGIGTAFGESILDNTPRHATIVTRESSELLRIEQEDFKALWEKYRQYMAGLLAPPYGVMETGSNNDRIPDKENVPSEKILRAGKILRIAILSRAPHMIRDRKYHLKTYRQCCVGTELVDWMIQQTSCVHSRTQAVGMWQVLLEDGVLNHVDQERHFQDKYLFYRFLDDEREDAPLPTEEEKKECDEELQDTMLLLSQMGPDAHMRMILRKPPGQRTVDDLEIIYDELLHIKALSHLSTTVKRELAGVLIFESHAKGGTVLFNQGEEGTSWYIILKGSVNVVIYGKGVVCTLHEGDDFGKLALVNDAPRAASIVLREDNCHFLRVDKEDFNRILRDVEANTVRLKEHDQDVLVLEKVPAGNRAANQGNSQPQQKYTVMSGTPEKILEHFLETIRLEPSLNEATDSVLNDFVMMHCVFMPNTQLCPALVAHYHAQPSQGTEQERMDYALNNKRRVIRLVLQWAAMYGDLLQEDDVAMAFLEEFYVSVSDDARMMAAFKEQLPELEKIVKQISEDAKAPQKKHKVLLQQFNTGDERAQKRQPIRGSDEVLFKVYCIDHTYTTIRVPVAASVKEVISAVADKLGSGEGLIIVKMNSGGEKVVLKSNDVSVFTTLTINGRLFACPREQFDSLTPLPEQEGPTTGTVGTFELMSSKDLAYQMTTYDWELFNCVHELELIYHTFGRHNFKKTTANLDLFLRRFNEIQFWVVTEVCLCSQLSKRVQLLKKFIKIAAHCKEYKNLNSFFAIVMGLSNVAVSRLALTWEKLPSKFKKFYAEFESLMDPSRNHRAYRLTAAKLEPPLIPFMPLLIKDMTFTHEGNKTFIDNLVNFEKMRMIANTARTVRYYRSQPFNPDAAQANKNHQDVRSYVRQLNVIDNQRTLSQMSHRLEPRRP
Description: Murine Epac2 was used as all previous structural studies were performed with it.
The activity of Epac was determined by a fluorescence assay. […] The fluorescence intensity of Rap1B•mGDP is approximately twice that of free mGDP, and thus, nucleotide exchange can be observed as a decay in fluorescence upon the addition of excess unlabeled GDP.

T1 sequence (P10644 whole entry): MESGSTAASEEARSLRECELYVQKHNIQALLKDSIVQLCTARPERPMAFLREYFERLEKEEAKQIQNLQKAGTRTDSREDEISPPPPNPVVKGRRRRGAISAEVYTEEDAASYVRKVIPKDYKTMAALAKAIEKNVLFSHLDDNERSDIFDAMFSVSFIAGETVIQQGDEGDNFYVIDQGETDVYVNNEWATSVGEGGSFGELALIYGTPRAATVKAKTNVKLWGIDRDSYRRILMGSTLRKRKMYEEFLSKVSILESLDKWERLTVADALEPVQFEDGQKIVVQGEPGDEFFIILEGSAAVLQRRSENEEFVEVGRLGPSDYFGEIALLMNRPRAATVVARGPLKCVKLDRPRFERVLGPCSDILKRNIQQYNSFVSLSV

Compound: Cc1ccc(CSc2nc3c(N)ncnc3n2[C@@H]2O[C@@H]3CO[P@](O)(=S)O[C@H]3[C@H]2O)cc1 [S-230, Sp-8-pMeBnT-cAMPS]
- A (PKA activity) (PKA-Iα; concentration 1 μM): 2.9904 U/mg
- A (PKA activity) (PKA-Iα; concentration 1.00E+01 μM): 1.9936 U/mg
- A (PKA activity) (PKA-Iα; concentration 1.00E-01 μM): 3.8864 U/mg
- A (PKA activity) (PKA-Iα; concentration 1.00E-02 μM): 2.632 U/mg
- A (PKA activity) (PKA-Iα; concentration 1.00E-03 μM): 3.2928 U/mg
- A (PKA activity) (PKA-Iα; concentration 1.00E-05 μM): 2.7664 U/mg
- A (PKA activity) (PKA-Iα; concentration 5.00E+02 μM): 2.9232 U/mg
- kobs (Epac2^fl; 0.2 μM compound): 2.5e-05 s⁻¹
- kobs (Epac2^fl; 0.3 μM compound): 2.9e-05 s⁻¹
- kobs (Epac2^fl; 0.4 μM compound): 3.1e-05 s⁻¹
- kobs (Epac2^fl; 0.5 μM compound): 3.3e-05 s⁻¹
- kobs (Epac2^fl; 0.6 μM compound): 3.6e-05 s⁻¹
- kobs (Epac2^fl; 0.7 μM compound): 4e-05 s⁻¹
- kobs (Epac2^fl; 0.8 μM compound): 4.1e-05 s⁻¹
- kobs (Epac2^fl; 1 μM compound): 4.7e-05 s⁻¹
- kobs (Epac2^fl; 2 μM compound): 8.9e-05 s⁻¹
- kobs (Epac2^fl; 3 μM compound): 0.000128 s⁻¹
- kobs (Epac2^fl; 4 μM compound): 0.000139 s⁻¹
- kobs (Epac2^fl; 5 μM compound): 0.000145 s⁻¹
- kobs (Epac2^fl; 6 μM compound): 0.000194 s⁻¹
- kobs (Epac2^fl; 7 μM compound): 0.000209 s⁻¹
- kobs (Epac2^fl; 8 μM compound): 0.000213 s⁻¹
- kobs (Epac2^fl; 10 μM compound): 0.000238 s⁻¹
- kobs (Epac2^fl; 20 μM compound): 0.000358 s⁻¹
- kobs (Epac2^fl; 30 μM compound): 0.000429 s⁻¹
- kobs (Epac2^fl; 40 μM compound): 0.000467 s⁻¹
- kobs (Epac2^fl; 50 μM compound): 0.000491 s⁻¹
- kobs (Epac2^fl; 60 μM compound): 0.000519 s⁻¹
- kobs (Epac2^fl; 70 μM compound): 0.00055 s⁻¹
- kobs (Epac2^fl; 80 μM compound): 0.000558 s⁻¹
- kobs (Epac2^fl; 100 μM compound): 0.000582 s⁻¹
- kobs (Epac2^fl; 200 μM compound): 0.000643 s⁻¹
- kobs (Epac2^fl; 400 μM compound): 0.00061 s⁻¹
- kobs (Epac2^fl; 600 μM compound): 0.000556 s⁻¹
- kobs (Epac2^fl; 800 μM compound): 0.000527 s⁻¹

Compound: Nc1ncnc2c1ncn2[C@@H]1O[C@@H]2COP(=O)(O)O[C@H]2[C@H]1O [cAMP, reference compound]
- A (PKA activity) (PKA-Iα; concentration 1 μM): 2.37E+01 U/mg
- A (PKA activity) (PKA-Iα; concentration 1.00E+01 μM): 2.34E+01 U/mg
- A (PKA activity) (PKA-Iα; concentration 1.00E+02 μM): 2.51E+01 U/mg
- A (PKA activity) (PKA-Iα; concentration 1.00E-01 μM): 1.43E+01 U/mg
- A (PKA activity) (PKA-Iα; concentration 1.00E-02 μM): 4.4268 U/mg
- A (PKA activity) (PKA-Iα; concentration 1.00E-03 μM): 1.4399 U/mg
- A (PKA activity) (PKA-Iα; concentration 1.00E-05 μM): 2.9393 U/mg
- A (PKA activity) (PKA-Iα; concentration 2.50E-01 μM): 1.93E+01 U/mg
- A (PKA activity) (PKA-Iα; concentration 2.50E-02 μM): 7.9492 U/mg
- A (PKA activity) (PKA-Iα; concentration 5.00E-02 μM): 9.6152 U/mg
- kobs (Epac2^fl; 0.2 μM compound): 1.9e-05 s⁻¹
- kobs (Epac2^fl; 0.3 μM compound): 2e-05 s⁻¹
- kobs (Epac2^fl; 0.4 μM compound): 2.1e-05 s⁻¹
- kobs (Epac2^fl; 0.5 μM compound): 2.1e-05 s⁻¹
- kobs (Epac2^fl; 0.6 μM compound): 2.5e-05 s⁻¹
- kobs (Epac2^fl; 0.7 μM compound): 2.36e-05 s⁻¹
- kobs (Epac2^fl; 0.8 μM compound): 2.47e-05 s⁻¹
- kobs (Epac2^fl; 1 μM compound): 2.84e-05 s⁻¹
- kobs (Epac2^fl; 2 μM compound): 3.47e-05 s⁻¹
- kobs (Epac2^fl; 3 μM compound): 4.1e-05 s⁻¹
- kobs (Epac2^fl; 4 μM compound): 4.71e-05 s⁻¹
- kobs (Epac2^fl; 5 μM compound): 5.23e-05 s⁻¹
- kobs (Epac2^fl; 6 μM compound): 5.05e-05 s⁻¹
- kobs (Epac2^fl; 7 μM compound): 5.49e-05 s⁻¹
- kobs (Epac2^fl; 8 μM compound): 6.35e-05 s⁻¹
- kobs (Epac2^fl; 10 μM compound): 7.22e-05 s⁻¹
- kobs (Epac2^fl; 20 μM compound): 0.000116 s⁻¹
- kobs (Epac2^fl; 30 μM compound): 0.000142 s⁻¹
- kobs (Epac2^fl; 40 μM compound): 0.000159 s⁻¹
- kobs (Epac2^fl; 50 μM compound): 0.000167 s⁻¹
- kobs (Epac2^fl; 60 μM compound): 0.000192 s⁻¹
- kobs (Epac2^fl; 70 μM compound): 0.000198 s⁻¹
- kobs (Epac2^fl; 80 μM compound): 0.000203 s⁻¹
- kobs (Epac2^fl; 100 μM compound): 0.000207 s⁻¹
- kobs (Epac2^fl; 200 μM compound): 0.000219 s⁻¹
- kobs (Epac2^fl; 400 μM compound): 0.000212 s⁻¹
- kobs (Epac2^fl; 600 μM compound): 0.000207 s⁻¹
- kobs (Epac2^fl; 800 μM compound): 0.000224 s⁻¹
